Assay results taken from patent US20030003517A1, “Methods of detecting dissociated nuclear hormone receptor ligands” (priority 2001, published 2003).
Residue numbers refer to the chain shown, from its start.

Tests used:
[1] = target: T1, RARα/RXRα heterodimer bound to a DR-5 retinoic acid receptor response element (RARE) (Homo sapiens, UniProt P10276); test: DNA dependent coregulator recruitment assay (ternary complex immunoprecipitation from transfected CV-1 whole cell extracts); type: biochemical; conditions: for ligand mediated dissociation of N-CoR: wild type RARα ternary complex; for SRC-1 recruitment to the wild type ternary complex: wild type RARα/RXRα, FIG. 1, FIG. 5B
T1 construct: expressed in transfected cells; host or cells: CV-1 cells, transient transfection; whole cell extract
T1 sequence (P10276 1-462): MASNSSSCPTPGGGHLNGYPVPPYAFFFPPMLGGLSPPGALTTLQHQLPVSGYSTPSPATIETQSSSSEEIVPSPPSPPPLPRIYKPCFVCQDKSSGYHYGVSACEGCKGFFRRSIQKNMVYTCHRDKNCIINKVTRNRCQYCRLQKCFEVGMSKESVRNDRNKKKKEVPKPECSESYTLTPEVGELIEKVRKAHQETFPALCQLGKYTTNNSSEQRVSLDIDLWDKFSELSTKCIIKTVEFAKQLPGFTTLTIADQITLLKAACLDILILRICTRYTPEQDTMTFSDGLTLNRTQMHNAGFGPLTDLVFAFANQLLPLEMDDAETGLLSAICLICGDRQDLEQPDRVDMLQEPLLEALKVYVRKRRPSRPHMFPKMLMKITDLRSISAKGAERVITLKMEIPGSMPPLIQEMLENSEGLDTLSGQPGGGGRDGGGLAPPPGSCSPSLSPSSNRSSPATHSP
T1 sequence (P19793 1-462 partner): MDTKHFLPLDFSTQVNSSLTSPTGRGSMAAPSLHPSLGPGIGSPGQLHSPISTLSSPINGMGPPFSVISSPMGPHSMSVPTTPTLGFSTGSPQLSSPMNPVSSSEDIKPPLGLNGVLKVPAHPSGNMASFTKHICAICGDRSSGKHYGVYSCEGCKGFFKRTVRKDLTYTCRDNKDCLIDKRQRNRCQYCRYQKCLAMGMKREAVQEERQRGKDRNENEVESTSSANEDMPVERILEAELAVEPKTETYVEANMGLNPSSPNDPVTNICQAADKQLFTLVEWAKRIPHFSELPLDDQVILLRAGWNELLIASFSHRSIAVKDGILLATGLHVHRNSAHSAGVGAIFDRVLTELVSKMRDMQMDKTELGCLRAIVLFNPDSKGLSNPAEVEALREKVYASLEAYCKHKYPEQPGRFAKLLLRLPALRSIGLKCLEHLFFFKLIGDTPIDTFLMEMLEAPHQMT
Method: Cells were transfected and cell extracts prepared essentially as follows. For whole cell extracts, CV-1 cells were cultured with D-MEM (Gibco-BRL Life Technologies; Rockville, Md.) containing 10% activated charcoal extracted fetal bovine serum (Gemini Bio-Products). At a density of 40˜60% (15-cm plate, Falcon; Fort Worth, Tex.), cells were transiently transfected with 15 μl FuGene 6 Transfection Reagent (Roche Diagnostics) with 0.5 ug of pRS-RXRα, and 5 ug of either pcDNA3.1-hRARα-V5, pcDNA3.1-hRARβ-V5 or pcDNA3.1-hRARγ-V5 per plate. After two days, cells were rinsed twice with PBS and lysed in cold NET buffer (20 mM Tris-Cl [pH8.0], 200 mM NaCl, 1 mM EDTA, 0.1% NP-40, 10% glycerol) containing protease inhibitors, homogenized by QIAshredder (Qiagen; Valencia, Calif.), and clarified by centrifugation.
Immunoprecipitations and western analyses were performed as follows. CV-1 whole cell extract from transfected cells (1 mg) was used for each immunoprecipitation. Cell lysates were incubated with ligands on ice for 1 hour. […] After a 1 hour incubation on ice with primary antibody (mouse anti-V5, Invitrogen), protein G-agarose (SIGMA) was added and samples were rocked overnight at 4° C. […] Membranes were probed with the indicated antibodies in PBS-T buffer (PBS with 0.1% Tween-20) containing 5% nonfat dry milk, and washed in PBS-T buffer. Primary antibodies (#SC553, rabbit anti-RXRα; #SC1609, goat anti-N-CoR) were obtained from Santa Cruz Biotech and Affinity BioReagents (#MA1-840, mouse anti-SRC-1; Golden, Colo.).
The DNA dependent coregulator recruitment assay was used to measure the ability of RARα selective ligands shown in Table 2 to recruit the coactivators SRC-1 and ACTR to the RARα/RXRα heterodimer bound to a DR-5 retinoic acid receptor response element (RARE).

[2] = tested on: ER-RARα; test: ER-RARα chimeric receptor transactivation assay in transfected CV-1 cells (luciferase); type: cell-based; conditions: CV-1 cells transfected with ER-RARα; highest dose tested 1 μM; FIG. 3A
Method: (§1) RAR transactivation assays were performed essentially as previously described. For analysis of ER-RARα chimeric receptor transactivation, 5×10^3 CV-1 cells were plated per well of a 96-well microtiter plate and were transiently transfected with Lipofectamine and the indicated DNA. Specifically, transfections were performed with 0.1 μg of pERE-tk-Luc reporter, which contains the estrogen regulated element of the Xenopus vittelogenin A2 gene inserted into the plasmid tk-Luciferase, and 0.01 μg of the SV-40 based vector pECE carrying a chimeric ER-RAR receptor consisting of the estrogen receptor A/B and DNA binding domains fused to the DEF domain of RARα, β or γ. Alternatively, cells were cotransfected with the reporter plasmid MTV-4 (R5G)-Luciferase together with the plasmid pRS-hRXRα and either pRS-RARα-P-GR, pcDNA3-RARβ-P-GR, or pcDNA3-RARγ-P-GR as previously described (Klein et al., J. Biol. Chem. 271:22692-22696 (1996)). After eighteen hours, cells were rinsed with phosphate buffered saline (PBS) and fed with D-MEM (Gibco-BRL) containing 10% activated charcoal extracted fetal bovine serum (Gemini Bio-Products). Cells were treated with retinoids for 18 hours after which they were lysed; luciferase activity was measured as previously described, with luciferase values representing the mean±SEM of quadruplicate determinations.

[3] = tested on: RARα-P-GR (wild type RARα); test: RARα-P-GR retinoid reporter transactivation in CV-1 cells; type: cell-based; conditions: FIG. 4
Method: as §1, with “After eighteen hours, cells were rinsed with phosphate buffered saline (PBS) and fed with D-MEM (Gibco-BRL) containing 10% activated charcoal extracted fetal bovine serum (Gemini Bio-Products).” left out
The RAR=60 R272-A mutant was analyzed for dominant negative activity using a retinoid reporter system responsive to transfected RARs recognizing RAREs containing a glucocorticoid receptor half-site (Klein et al., supra, 1996).

[4] = tested on: AP-1; test: Anti-AP1 assay: phorbol ester stimulated collagenase-promoter reporter containing an AP-1 response element; type: cell-based; conditions: for anti-AP-1 activity (antagonism of TPA stimulated collagenase reporter activity): FIG. 6
Method: The ability of AGN196382 to antagonize phorbol ester stimulated transcription was assayed using a collagenase-promoter reporter construct containing an AP-1 response element. […] Specifically, detection of anti-AP-1 activity by AGN196382 was only detectable at doses greater than 10 μM; similarly, detection of SRC-1 recruitment to the ternary complex by 196382 was apparent only at doses greater than 10 μM. Such elevated doses of AGN196382, while sufficient for efficacious anti-AP-1 activity, are not sufficient for efficient transcriptional activation of RARα.

[5] = target: T2, RARα R272-A containing ternary complex (Homo sapiens, UniProt P10276, R272A); test: Ternary complex coregulator assay with RARα-V5 mutant R272-A; type: biochemical; conditions: 1 μM ligand; FIG. 2
T2 construct: expressed in transfected cells; host or cells: CV-1 cells, transient transfection; whole cell extract
T2 sequence (P10276 1-462 R272A): T1 sequence (P10276 1-462) with R272A
T2 sequence (P19793 1-462 partner): T1 sequence (P19793 1-462 partner)
Method: Immunoprecipitations and western analyses were performed as follows. CV-1 whole cell extract from transfected cells (1 mg) was used for each immunoprecipitation. Cell lysates were incubated with ligands on ice for 1 hour. […] After a 1 hour incubation on ice with primary antibody (mouse anti-V5, Invitrogen), protein G-agarose (SIGMA) was added and samples were rocked overnight at 4° C. […] Membranes were probed with the indicated antibodies in PBS-T buffer (PBS with 0.1% Tween-20) containing 5% nonfat dry milk, and washed in PBS-T buffer. […]

[6] = tested on: RARα(R272-A)-P-GR; test: RARα(R272-A)-P-GR retinoid reporter transactivation in CV-1 cells; type: cell-based; conditions: FIG. 4
Method: RAR transactivation assays were performed essentially as previously described. For analysis of ER-RARα chimeric receptor transactivation, 5×10^3 CV-1 cells were plated per well of a 96-well microtiter plate and were transiently transfected with Lipofectamine and the indicated DNA. […] After eighteen hours, cells were rinsed with phosphate buffered saline (PBS) and fed with D-MEM (Gibco-BRL) containing 10% activated charcoal extracted fetal bovine serum (Gemini Bio-Products). Cells were treated with retinoids for 18 hours after which they were lysed; luciferase activity was measured as previously described, with luciferase values representing the mean±SEM of quadruplicate determinations.

[7] = target: RARα/RXRα heterodimer (wild type RARα-V5 with RXRα) in the RAR/RXR/DNA ternary complex (human) (UniProt P19793); test: co-immunoprecipitation of ternary complex, western blot; with 1 µM AGN194794, relative to 1 µM TTNPB
[8] = target: RARα/RXRα heterodimer (wild type RARα-V5 with RXRα) in the RAR/RXR/DNA ternary complex (human) (UniProt P19793); test: co-immunoprecipitation of ternary complex, western blot; with 1 µM AGN196382, relative to 1 µM TTNPB

| Compound | ligand mediated dissociation of N-CoR [1] | transactivation at RARα [2] | p300 recruitment relative to TTNPB ([1]; ligands 1 μM, FIG. 3B) | SRC-1 recruitment to the wild type ternary complex [1] | anti-AP-1 activity (antagonism of TPA stimulated collagenase reporter activity) [4] | further results |
| --- | --- | --- | --- | --- | --- | --- |
| CC(C)c1cc(C(=O)Nc2ccc(C(=O)O)c(F)c2)c(O)c(C(C)C)c1 [AGN194365] | dissociation of N-CoR | potent and effective transactivation properties |  |  |  | SRC-1 recruitment compared to TTNPB ([1]; ligands 1 μM, FIG. 3B): 65% |
| CC12CCC(C)(CC1)c1c2cc(C(=O)Nc2cc(F)c(C(=O)O)c(F)c2)c(O)c1Br [AGN194794] | full N-CoR disengagement | activated RARα, albeit with slightly less efficacy and potency | 34% | essentially identical for the two ligands |  | ligand mediated dissociation of N-CoR ([1]; listed as 194794): dissociation of N-CoR |
| CCOc1c(C(C)C)cc(C(=O)Nc2cc(F)c(C(=O)O)c(F)c2)cc1C(C)C [AGN196382] | nearly absent | no activity at RARα except at the highest dose (1 μM) tested | 30% | essentially identical for the two ligands | similarly efficacious | activation of wild type RARα [3]: significantly reduced relative to TTNPB; dose at which SRC-1 recruitment to the ternary complex is apparent [1]: greater than 10 μM; ligand mediated dissociation of N-CoR ([1]; listed as 196382): significantly impaired; dose at which anti-AP-1 activity is detectable [4]: greater than 10 μM; SRC-1 recruitment to RARα R272-A ternary complex [5]: lack of recruitment of SRC-1; activation of RARα(R272-A) [6]: not activated at all |
| CCOc1c(C2CC2)cc(C(=O)Nc2cc(F)c(C(=O)O)c(F)c2)cc1C(C)(C)C [AGN196412] | significantly impaired | no activity at RARα except at the highest dose (1 μM) tested |  |  |  | ACTR recruitment compared to TTNPB ([1]; ligands 1 μM, FIG. 3B): 65% |
| C/C(=C\c1ccc(C(=O)O)cc1)c1ccc2c(c1)C(C)(C)CCC2(C)C [TTNPB, reference compound] |  |  |  |  | potent and efficacious anti-AP-1 activity |  |
| p300 (coactivator p300/CBP) (from UniProt Q09472 2-2414) |  |  |  |  |  | % recruitment relative to TTNPB [7]: 34%; % recruitment relative to TTNPB [8]: 30% |
